Assay results taken from patent US9296709B2, “Manufacture of 2-(5-bromo-4-(4-cyclopropylnaphthalen-1-yl)-4H-1,2,4-triazol-3-ylthio)acetic acid” (ARDEA BIOSCIENCES, INC., priority 2012, dated 2016).
≈ marks a conversion by molar mass, not a printed value.

Experiments:
[1] = Solid held in equilibrium with its saturated acetone solution at 60° C.; assay type: physicochemical; conditions: 60° C. for 6 days
[2] = Gravimetric vapor sorption (GVS) study; assay type: physicochemical
Source text: FIG. 12 illustrates a GVS study of form 1 and form 2. […] This property of decreased hygroscopicity greatly aids in the preparation of solid pharmaceutical dosage forms.

[3] = Solubility in acetate buffer (25 mM, pH 5), assayed by HPLC; assay type: physicochemical; conditions: acetate buffer 25 mM pH 5, 25° C.; for solubility at 1 day: acetate buffer, 25 °C, pH 5, aqueous buffer, thermodynamic from solid
Method: (§1) Form 1 (˜25 mg) and acetate buffer (25 mM, pH 5, 4 mL), prepared with and without sodium chloride (ionic strength adjusted to =0.1M), were placed in a glass vial which was sealed and placed on a laboratory rotator in a 25° C. incubator. After 1, 5, and 7 days the samples were filtered and assayed by HPLC.
as §1, with “Form 2” for “Form 1”

[4] = Drug substance stability of packaged polymorph under accelerated / long term storage conditions; conditions: for degradation of packaged drug substance: double LDPE bag, heat sealed foil bag, HDPE container
Method: Form 2 of 2-(5-bromo-4-(4-cyclopropylnaphthalen-1-yl)-4H-1,2,4-triazol-3-ylthio)acetate was tested under various conditions to determine drug substance stability. […] Packaging was in a double low density polyethylene plastic bags inside a HDPE container.

| SMILES | outcome of equilibration with saturated acetone solution [1] | adsorbed at high humidity (GVS) [2] [% w/w] | solubility at 1 day ([3]; Form 1, NaCl (I = 0.1), Day 1) [µg/mL] | stability in comparison to the amorphous solid state form of the carboxylic acid [4] | degradation of packaged drug substance ([4]; 6 months, accelerated conditions 40° C.-75% RH) | degradation of packaged drug substance ([4]; 12 months, long term conditions 25° C.-60% RH) | solubility ([3]; Form 2, NaCl (I = 0.1), Day5, sample pH 4.83) | solubility ([3]; Form 2, NaCl (I = 0.1), Day 7, sample pH 4.85) | solubility ([3]; Form 2, No NaCl, Day 1, sample pH 4.91) | solubility ([3]; Form 2, No NaCl, Day5, sample pH 4.73) | solubility ([3]; Form 2, No NaCl, Day 7, sample pH 4.79) | solubility at 1 day ([3]; Form 2, NaCl (I = 0.1), Day 1) [µg/mL] |
| --- | --- | --- | --- | --- | --- | --- | --- | --- | --- | --- | --- | --- |
| O=C(O)CSc1nnc(Br)n1-c1ccc(C2CC2)c2ccccc12 [Form 1, 2-(5-bromo-4-(4-cyclopropylnaphthalen-1-yl)-4H-1,2,4-triazol-3-ylthio)acetic acid] | decomposition | < 0.2 | 300 (≈ 741 µM) |  |  |  |  |  |  |  |  |  |
| O=C([O-])CSc1nnc(Br)n1-c1ccc(C2CC2)c2ccccc12.[Na+] [Form A, sodium 2-(5-bromo-4-(4-cyclopropylnaphthalen-1-yl)-4H-1,2,4-triazol-3-ylthio)acetate] |  |  |  | improvement over the solid state amorphous free acid | No degradation | no degradation |  |  |  |  |  |  |
| O=C(O)CSc1nnc(Br)n1-c1ccc(C2CC2)c2ccccc12 [Form 2, 2-(5-bromo-4-(4-cyclopropylnaphthalen-1-yl)-4H-1,2,4-triazol-3-ylthio)acetic acid] |  | < 0.1 |  |  |  |  | 0.2441 (pH 4.83) mg/mL | 0.2157 (pH 4.85) mg/mL | 0.1867 (pH 4.91) mg/mL | 0.1957 (pH 4.73) mg/mL | 0.1337 (pH 4.79) mg/mL | 219 (≈ 542 µM) |
